Experimental data published in patent US11384358B2, “Method of regulating gene expression in a cell” (President and Fellows of Harvard College, priority 2017, dated 2022).

Key:
Assay type in all cases: cell-based
[1] = system: TetR regulon paired with slpA-tetO variant 2; assay: aTc induction of fluorescent reporter, TetR regulon (L. plantarum promoter) paired with slpA-tetO variant 2; settings: L. rhamnosus GG; 0.3125-10 ng/mL aTc; early exponential, mid-exponential and stationary phase; FIG. 1
Description: To evaluate the functionality of the aTc induction system described herein in lactic acid bacteria, the TetR regulon described herein is driven by a L. plantarum promoter paired with slpA-tetO variant 2 (current SEQ IDs 1 and 2), into L. rhamnosus GG via electroporation with a high copy plasmid. Sequence verified colonies, as well as colonies harboring a negative control plasmid with no fluorescence reporter, were then picked in triplicate, and used to inoculate liquid cultures that were grown overnight. These overnight cultures were then sub-cultured 1/100 into fresh media, in duplicate—one culture containing 10 ng/mL aTc, the other containing no inducing agent. The culture with inducing agent, was then serially diluted by 50%, 5 times (yielding cultures with 5, 2.5, 1.25, 0.625, and 0.3125 ng/mL of aTc, in addition to the original 10 ng/mL culture). These cultures were then grown to an optical density of 0.2 (to capture lag phase behavior), 0.6 (log phase), and 1.0 (stationary phase), as measured by an optical cell density meter. At each optical density, the fluorescence of all cultures and replicates were measured in absolute units in a fluorimeter. Relative fluorescence units were then computed as a fold change value over the measured fluorescence of the negative control cell cultures that were known to not express fluorescence protein.

[2] = system: aTc-inducible expression cassette encoding J3-VHH secretion; assay: aTc-induced secretion of HisTagged J3-VHH nanobody, protein gel of purified culture supernatant; settings: L. gasseri with inducible cassette (SEQ ID NO: 2); 500 ng/mL aTc added at optical density 0.4; FIG. 17
Text: According to one aspect, an inducible expression system is used prevent expression during bacterial culture and clone isolation. According to one aspect, expression is controlled and kept off during bacterial culture and clone isolation to avoid or lower or reduce or inhibit secretion-induced toxicity. According to one aspect, the level of a HisTagged, anti-HIV (gp120) camelid nanobody (J3-VHH) purified from culture supernatant, when secretion of protein was driven by an inducible system (SEQ ID NO: 2) was compared to a system using an uncontrolled, constitutive slpA. Cells (in this case, L. gasseri) without an expression cassette (negative control with no protein expected), an aTc-inducible expression cassette encoding J3-VHH secretion, and an equivalent, but constitutive expression cassette, were grown in culture to an optical density of 0.4 (the start of the exponential growth phase, during which time cellular protein production capacity is maximal), and split into two equal volumes—500 ng/mL of aTc was added to one, while the other received no aTc (as an internal negative control to verify functional induction).

L. gasseri = assay: susceptibility of Lactobacillus strains to tetracycline (growth inhibition)
L. crispatus = assay: as above
L. jensenii = assay: as above
Description: (§1) An expression system that is inducible by tetracycline in Lactobacilli is described as follows. […] A BLAST analysis of the TetR protein sequence as well as the TetA tetracycline efflux pump that drives resistance was performed, across all available Lactobacillus proteomes and potential homologs in L. lactis, and L. plantarum were identified, because they carry a transferrable plasmid harboring tetM and tetS genes.

L. rhamnosus GG [3] = assay: as above
Description: as §1

L. rhamnosus GG [4] = assay: leakage and induction of aTc-inducible slpA promoter variant (FIG. 16)
Text: An exemplary aTc-inducible slpA promoter variant is provided in SEQ ID NO:15 which includes the alterations above resulting in a combined, maximally repressive variant. In one embodiment, a promoter sequence has at least 85% homology, at least 90% homology, at least 95% homology, at least 97% homology, at least 98% homology or at least 99% homology to SEQ ID NO:15. All of the described alterations work in concert to achieve an inducible system that has essentially undetectable levels of leakage in all phases of growth.

[5] = relative expression strength of promoters by fluorescence (FIG. 12)
[6] = system: TetR regulon paired with slpA-tetO variant 2; assay: aTc induction of fluorescent reporter in L. gasseri; settings: similar experimental conditions, FIG. 15
L. rhamnosus GG [7] = assay: promoter variants driving fluorescent reporter in plasmid with no TetR, L. rhamnosus GG
Description: FIG. 11 depicts minimum free energy mRNA structural folding predictions. Each of these variants was then tested in a plasmid with no TetR (meaning the inserted promoters are not repressed, and should be constitutively active), driving a fluorescent reporter. […] Subsequently, this test was replicated in L. rhamnosus GG. […] Therefore, only variant 2 was selected for testing in the presence of TetR. […] See McCracken et al. J Bacteriol 181(20):6569-6572 (1999).

**Q.** With Cc1c2c(c(O)c3c(O)cccc13)C(=O)[C@]1(O)C(O)=C(C(N)=O)C(=O)[C@@H](N(C)C)[C@@H]1C2 [aTc, anhydrous tetracycline] as the molecule, how does the “repression and expression of a fluorescent protein in the absence and presence of aTc” value [1] read?
**A.** reliable repression and expression of a fluorescent protein

**Q.** And the “secretion of J3-VHH protein into the supernatant” value [2]?
**A.** secreted any protein into the supernatant

**Q.** What does the source list for CN(C)[C@@H]1C(O)=C(C(N)=O)C(=O)[C@@]2(O)C(O)=C3C(=O)c4c(O)cccc4[C@@](C)(O)[C@H]3C[C@@H]12 [tetracycline]?
**A.** tetracycline concentration at which growth is inhibited (L. gasseri): ≤ 2 mg/mL; tetracycline concentration at which growth is inhibited (L. crispatus): ≤ 2 mg/mL; tetracycline concentration at which growth is inhibited (L. jensenii): ≤ 2 mg/mL; tetracycline concentration at which growth is inhibited (L. rhamnosus GG [3]): ≤ 2 mg/mL

B1: SEQ ID NO:15: aTc-inducible slpA promoter variant combining all alterations, maximally repressive (nucleic acid)
DNA: TGCTTGTGGGGGTAAGCGGTAGGTGAAATATTACAAATAGTATTTTTCGGTCATTTTAACTTGCTATTTCTTGAAGAGGTTAGTACAATATGAATCGTGGTCCCTATCAGTGATAGAGATTGACATCCCTATCAGTGATAGAGATATTCTTCAGCAAGACTACTACCTCATGAGAGTTATAGACTCATGGATCTTGCTTTGAAGGGTTTTGTACATTATAGGCTCCTATCACATGCTGAACCTATGGCCTATTACATTTTTTTATATTTCAAGGAGGAAAAGACCAC
**Q.** Which “reduction in maximum inducible expression” value (L. rhamnosus GG [4]; FIG. 16) does the source give for B1 here?
**A.** ~10 ×

**Q.** What about the “basal expression in the absence of aTc” value (L. rhamnosus GG [4]; stationary phase for 0, 2.5, 7.5 and 17.5 hours) of the same molecule?
**A.** no basal expression was detected

B2: promoter for the ribosomal RNA 3-a from L. plantarum: L. plantarum ribosomal RNA promoter 3-a, used to drive TetR (SEQ ID NO: 1) (nucleic acid)
DNA: TTATAAAAAGATGTTGACAGCTTGTTCTGATGATGATAAACTTTAATAGTTGCGAGAGAAAGAGGAGAAATACTAGATGATGTCTAGATTAGATAAAAGTAAAGTGATTAACAGCGCATTAGAGCTGCTTAATGAGGTCGGAATCGAAGGTTTAACAACCCGTAAACTCGCCCAGAAGCTAGGTGTAGAGCAGCCTACATTGTATTGGCATGTAAAAAATAAGCGGGCTTTGCTCGACGCCTTAGCCATTGAGATGTTAGATAGGCACCATACTCACTTTTGCCCTTTAGAAGGGGAAAGCTGGCAAGATTTTTTACGTAATAACGCTAAAAGTTTTAGATGTGCTTTACTAAGTCATCGCGATGGAGCAAAAGTACATTTAGGTACACGGCCTACAGAAAAACAGTATGAAACTCTCGAAAATCAATTAGCCTTTTTATGCCAACAAGGTTTTTCACTAGAGAATGCATTATATGCACTCAGCGCTGTGGGGCATTTTACTTTAGGTTGCGTATTGGAAGATCAAGAGCATCAAGTCGCTAAAGAAGAAAGGGAAACACCTACTACTGATAGTATGCCGCCATTATTACGACAAGCTATCGAATTATTTGATCACCAAGGTGCAGAGCCAGCCTTCTTATTCGGCCTTGAATTGATCATATGCGGATTAGAAAAACAACTTAAATGTGAAAGTGGGTCTTAA
**Q.** Which “expression strength relative to slpA” value [5] does the source give for B2 here?
**A.** 5 fold weaker than that of slpA

B3: TetR-ClpC-slpA: hybrid regulon: L. fermentum BR11 ClpC promoter fused to slpA 5' untranslated region driving TetR (nucleic acid)
DNA: CTTAAAATATAGTCATAGAATTAGGGCGTCGGTTTTAAAAGTGTGGTAAAATAATGGTCAAGATTAGTGGTAAGTAATAGGACGTGCTTCAGGCGTGTTGCCTGTACGCATGCTGATTCTTCAGCAAGACTACTACCTCATGAGAGTTATAGACTCATGGTATAGGCTCCTATCACATGCTGAACCTATGGCCTATTACATTTTTTTATATTTCAAGGAGGAAAAGACCACATGATGTCACGCTTGGATAAATCAAAAGTTATTAATTCAGCATTGGAATTGTTGAATGAAGTTGGCATTGAAGGCTTGACCACCCGCAAATTGGCACAAAAATTGGGCGTTGAACAACCAACCTTGTATTGGCATGTTAAAAATAAACGCGCATTGTTGGATGCATTGGCAATTGAAATGTTGGATCGCCATCATACCCATTTTTGCCCATTGGAAGGCGAATCATGGCAAGATTTTTTGCGCAATAATGCAAAATCATTTCGCTGCGCATTGTTGTCACATCGCGATGGCGCAAAAGTTCATTTGGGCACCCGCCCAACCGAAAAACAATATGAAACCTTGGAAAATCAATTGGCATTTTTGTGCCAACAAGGCTTTTCATTGGAAAATGCATTGTATGCATTGTCAGCAGTTGGCCATTTTACCTTGGGCTGCGTTTTGGAAGATCAAGAACATCAAGTTGCAAAAGAAGAACGCGAAACCCCAACCACCGATTCAATGCCACCATTGTTGCGCCAAGCAATTGAATTGTTTGATCATCAAGGCGCAGAACCAGCATTTTTGTTTGGCTTGGAATTGATTATTTGCGGCTTGGAAAAACAATTGAAATGCGAATCAGGCTCATAA
**Q.** For B3, which “function of hybrid promoter driving TetR” value [6] is on record?
**A.** functional

B4: Variant 2: slpA promoter with two tetO boxes after the transcriptional start site (nucleic acid)
DNA: TGCTTGTGGGGGTAAGCGGTAGGTGAAATATTACAAATAGTATTTTTCGGTCATTTTAACTTGCTATTTCTTGAAGAGGTTAGTACAATATGAATCGTGGCCCTATCAGTGATAGAGATCAGGCGCCCTATCAGTGATAGAGATGATTCTTCAGCAAGACTACTACCTCATGAGAGTTATAGACTCATGGATCTTGCTTTGAAGGGTTTTGTACATTATAGGCTCCTATCACATGCTGAACCTATGGCCTATTACATTTTTTTATATTTCAAGGAGGAAAAGACCAC
**Q.** For B4, which “expression versus wild-type promoter” value (L. rhamnosus GG [7]) is on record?
**A.** 3 fold-less than the wild-type promoter
